{"source": "patent US20030176511A1", "about": "“Compositions and methods for treating cardiovascular disorders” (priority 2000, published 2003)", "key": {"[1]": {"test_system": "α-tocopheroxyl radical", "assay": "Tocopheroxyl radical attenuating ability (TRAA)", "assay_type": "biochemical", "settings": "kobs in presence (+) or absence (−) of test compound"}, "[2]": {"test_system": "tocopherol-mediated peroxidation (TMP)", "assay": "Anti-TMP index", "assay_type": "biochemical"}, "[3]": {"test_system": "restenosis in rabbit abdominal aorta after arterial balloon injury", "assay": "Intimal thickening (intima and media ratio) in rabbit aorta after arterial balloon injury", "assay_type": "in vivo", "settings": "rabbits, 0.02% PDA474 in chow for 9 weeks", "description": "The intima and media ratio (IMR) was determined by tracing the intimal and medial areas, and dividing their respective total pixel numbers. Higher IMR indicate larger lesions. *Denotes a statistically significant difference with p<0.05.\nPDA474 was synthesised and supplied in pure form (99%) by Polysciences, Inc. (400 Valley Road, Warrington, Pa. 18976, USA).\nTwelve New Zealand White rabbits were fed a standard rabbit chow (100 g per day) with (n=6) or without (n=6) 0.02 weight % PDA474 (in dry powder form) for 9 weeks. The initial dosage was based on in vitro studies and other useful dosage amounts can be easily derived using a similar approach.\nAt the end of week 3, the abdominal aorta of all rabbits was injured by ABI. At the end of week 9, the infra-renal abdominal aorta was removed, fixed in 4% buffered formalin, embedded in paraffin, sectioned and stained with Verhoeff Hematoxylin. The intima and media ratio (IMR) was then determined by tracing the intimal and medial areas, and dividing their respective total pixel numbers. Higher IMR indicate larger lesions."}, "[4]": {"test_system": "lipoprotein oxidation in the vessel wall", "assay": "Aortic lipids, oxidised lipids and antioxidants in apoE−/− mice (HPLC of aortic homogenates)", "assay_type": "in vivo", "description": "Male C57BL/6J mice, homozygous for the disrupted apoE gene (apoE−/−) were fed standard chow (Lab-Feed, Sydney, Australia) until aged 10 weeks. […] After bleeding, mice were gravity-perfused for 5 min with DPBS containing 20 μM BHT and 1 mM EDTA (Buffer A) and aortas removed as described in Letters JM, et al (1999). Briefly, hearts, ascending and descending aortas (past the femoral junction) were excised and carefully cleaned. […] Once cleaned, aortas were separated from the heart taking care to include all aortic material while avoiding heart tissue. To obtain sufficient material for HPLC analysis (i.e., 30-40 mg wet weight tissue) it was necessary to pool 7-8 aortas. Separate pools of aortas were prepared for both groups and then immediately frozen in Buffer A and stored at −80° C. until analyses. Pooled aortas were snap frozen in liquid nitrogen, pulverised, resuspended in Buffer A, homogenised and then either treated with metaphosphoric acid (for ascorbate) or extracted and the hexane fraction analysed for lipid-soluble antioxidants, cholesterol (C), choleseteryl esters (CE), lipid hydroperoxides (LOOH) and cholesteryl ester hydroxides (CE-OH) by HPLC as described in Methods Enzymol. 1994;233:469489. LOOH and CE-OH were measured as markers of lipoprotein lipid oxidation, as they are the primary and major oxidation products formed when lipoproteins from apoE−/− mice undergo oxidation. […] All compounds were quantified by peak area comparison with authentic standards, and protein determined."}, "[5]": {"test_system": "plasma lipids", "assay": "Ex vivo AAPH-induced oxidation of plasma from apoE−/− mice", "assay_type": "in vivo", "settings": "plasma from probucol-treated mice, 5 mM AAPH, 37° C.", "description": "Pooled plasma obtained from control (open symbols) or probucol-treated (closed symbols) mice was exposed to 5 mM of the aqueous peroxyl radical generator AAPH and incubated under air at 37° C. […] Data shown are mean±SD of a single oxidation experiment performed in triplicate using pooled plasma. Where error bars are not shown, error is smaller than the symbol.\nPlasma was obtained from control and probucol mice and aliquots frozen for subsequent determination of lipids. Separate aliquots were acidified with metaphosphoric acid (5%) to stabilize vitamin C prior to freezing and storage at −80° C. The remainder was pooled appropriately and used for ex vivo oxidation initiated by the peroxyl radical generator AAPH and lipoprotein separation by FPLC with UV280nm detection, as described in J Lipid Res. 1 999;40:1104-1112.\nEnhanced resistance of plasma lipoproteins to oxidation is often used as a measure of antioxidant efficacy. Therefore, we examined AAPH-induced oxidation of pooled plasma from control and treated animals. […] These observations can be explained readily on the basis of tocopherol-mediated peroxidation."}, "[6]": {"assay": "Plasma lipids and antioxidants in apoE−/− mice", "assay_type": "in vivo", "description": "Male C57BL/6J mice, homozygous for the disrupted apoE gene (apoE−/−) were fed standard chow (Lab-Feed, Sydney, Australia) until aged 10 weeks. […] Separate aliquots were acidified with metaphosphoric acid (5%) to stabilize vitamin C prior to freezing and storage at −80° C. The remainder was pooled appropriately and used for ex vivo oxidation initiated by the peroxyl radical generator AAPH and lipoprotein separation by FPLC with UV280nm detection, as described in J Lipid Res. 1 999;40:1104-1112. Lipid-soluble antioxidants and lipids were quantified by HPLC as described in FASEB J. 1999;13:667-675. For ascorbate analysis, frozen acidified samples were thawed, diluted with DPBS to adjust the pH to 7.4 and then immediately subjected to HPLC. Plasma triglycerides were determined enzymatically (Boehringer, Mannheim, Germany)."}, "[7]": {"assay": "Lipids and antioxidants in plasma lipoprotein fractions (size exclusion FPLC) of apoE−/− mice", "assay_type": "in vivo", "settings": "pooled plasma, 1% w/w probucol, 24 weeks", "description": "Plasma was collected from individual mice, pooled, diluted 1:10 with buffer used for FPLC and 300 μL subjected to size exclusion chromatography. Chromatograms shown are representative of two analyses of independent pooled plasma samples. The horizontal bars indicate the corresponding fractions collected for each lipoprotein pool. Plasma was obtained from control and probucol mice and aliquots frozen for subsequent determination of lipids. Separate aliquots were acidified with metaphosphoric acid (5%) to stabilize vitamin C prior to freezing and storage at −80° C. The remainder was pooled appropriately and used for ex vivo oxidation initiated by the peroxyl radical generator AAPH and lipoprotein separation by FPLC with UV280nm detection, as described in J Lipid Res. 1 999;40:1104-1112. […] Two consecutive separations each employing 300 μL undiluted plasma were carried out. The corresponding eluents from both injections were collected, pooled according to fractions corresponding to very low-density lipoprotein (VLDL), LDL, and HDL plus mouse serum albumin (see FIG. 3) and then extracted and analysed for lipids and antioxidants."}, "[8]": {"test_system": "atherosclerosis/restenosis in ballooned New Zealand White rabbits", "assay": "Atherosclerosis/restenosis in cholesterol-fed, ballooned New Zealand White rabbits", "assay_type": "in vivo", "settings": "2% cholesterol diet with 1% probucol for 6 weeks", "description": "Aortic endothelial denudation was performed at week 3 by withdrawing an inflated 3F Fogarty balloon embolectomy catheter three times down the length of the aorta. Plasma was obtained from animals as described in Example 1 at the start and end of the study. At the end of the study period, individual aortas were removed and prepared for HPLC analysis as in Example 1. Lipids and antioxidants including probucol and its metabolites, bisphenol and diphenoquinone, were analyzed by RP-HPLC as described previously. Aortas designated for histology were perfusion-fixed with 4% (v/v) formaldehyde and transferred into formalin. Cross-sections (2-3 μm thick) were prepared and stained with Weigert's hematoxylin-van Gieson, and the intima to media ratio determined for three sections."}, "[9]": {"test_system": "coronary restenosis after BA", "settings": "probucol given alone, compared to the placebo, MVP trial; cited from earlier work"}, "[10]": {"test_system": "atherosclerotic lesions in apoE−/− mice", "assay": "Atherosclerotic lesion cross-section areas (morphometry) in apoE−/− mice", "assay_type": "in vivo", "settings": "lesion area of probucol group relative to controls", "description": "Male C57BL/6J mice, homozygous for the disrupted apoE gene (apoE−/−) were fed standard chow (Lab-Feed, Sydney, Australia) until aged 10 weeks. […] The high fat diet (control and probucol-supplemented) was prepared, according to the specifications of the Harlan Teklad diet TD88137. […] After bleeding, mice were gravity-perfused for 5 min with DPBS containing 20 μM BHT and 1 mM EDTA (Buffer A) and aortas removed as described in Letters JM, et al (1999). Briefly, hearts, ascending and descending aortas (past the femoral junction) were excised and carefully cleaned. […] Once cleaned, aortas were separated from the heart taking care to include all aortic material while avoiding heart tissue. To obtain sufficient material for HPLC analysis (i.e., 30-40 mg wet weight tissue) it was necessary to pool 7-8 aortas. Separate pools of aortas were prepared for both groups and then immediately frozen in Buffer A and stored at −80° C. until analyses. Lesions were assessed at four different sites along the aorta, in the aortic root, in the aortic arch, the descending thoracic and in the proximal abdominal aorta, and cross-sections (2-3 μm thick) were prepared and stained with Weigert's hematoxylin-van Gieson."}, "[11]": {"settings": "compared to controls, per protein"}}, "data": [{"smiles": "Cc1cc(C(C)(C)C)c(O)c(C(C)(C)C)c1", "note": "[BHT]", "values": [{"measurement": "TRAA (decay of α-tocopheroxyl radical; kobs(+)/kobs(−))", "setting": "[1]", "result": "Immediate decay"}, {"measurement": "Anti-TMP index", "setting": "[2]", "result": "8-10"}]}, {"smiles": "CC(C)(C)c1cc(SSc2cc(C(C)(C)C)c(O)c(C(C)(C)C)c2)cc(C(C)(C)C)c1O", "note": "[PDA474]", "values": [{"measurement": "lower IMR in drug-treated animals vs control", "setting": "[3]", "result": 34, "unit": "%"}, {"measurement": "intima and media ratio (IMR)", "setting": "[3]; ABI at end of week 3, mean±SEM, n=6", "result": "0.76±0.13"}]}, {"smiles": "CC(C)(Sc1cc(C(C)(C)C)c(O)c(C(C)(C)C)c1)Sc1cc(C(C)(C)C)c(O)c(C(C)(C)C)c1", "note": "[Probucol]", "values": [{"measurement": "drug metabolised to bisphenol or diphenoquinone, aorta", "setting": "[4]; aorta", "result": "~11", "unit": "%"}, {"measurement": "decrease of aortic concentration of C", "setting": "[4]; [11]", "result": 5.6, "unit": "fold"}, {"measurement": "decrease of aortic concentration of total CoQ (ubiquinones plus ubiquinols)", "setting": "[4]; [11]", "result": 2.5, "unit": "fold"}, {"measurement": "decrease of aortic concentration of vitamin E", "setting": "[4]; [11]", "result": 2.9, "unit": "fold"}, {"measurement": "probucol level during the oxidation period", "setting": "[5]", "result": "remained unchanged"}, {"measurement": "onset and initial rate of accumulation of CE-O(O)H", "setting": "[5]; vs control plasma", "result": "delayed and decreased respectively"}, {"measurement": "Plasma Triglyceride", "setting": "[6]; apoE−/− mice, probucol-supplemented diet, 24 weeks", "result": "0.4 ± 0.0", "unit": "mM"}, {"measurement": "drug converted into bisphenol or diphenoquinone, plasma", "setting": "[6]; plasma", "result": "~8", "unit": "%"}, {"measurement": "increase of plasma ascorbate", "setting": "[6]; plasma, probucol treated vs control mice", "result": "~1.4", "unit": "fold"}, {"measurement": "-TOH in HDL fraction", "setting": "[7]; HDL plus mouse serum albumin", "result": 1.4}, {"measurement": "C20:4 in HDL fraction", "setting": "[7]; HDL plus mouse serum albumin", "result": 24.0}, {"measurement": "C in HDL fraction", "setting": "[7]; HDL plus mouse serum albumin", "result": 0.12}, {"measurement": "Total CoQ in HDL fraction", "setting": "[7]; HDL plus mouse serum albumin", "result": 0.1}, {"measurement": "-TOH in LDL fraction", "setting": "[7]; LDL", "result": 7.8}, {"measurement": "C20:4 in LDL fraction", "setting": "[7]; LDL", "result": 50.4}, {"measurement": "C in LDL fraction", "setting": "[7]; LDL", "result": 0.96}, {"measurement": "Total CoQ in LDL fraction", "setting": "[7]; LDL", "result": 0.4}, {"measurement": "-TOH in VLDL fraction", "setting": "[7]; VLDL", "result": 0.56}, {"measurement": "C18:2 in VLDL fraction", "setting": "[7]; VLDL", "result": 340}, {"measurement": "Total CoQ in VLDL fraction", "setting": "[7]; VLDL", "result": 0.1}, {"measurement": "proportion of aortic lipids that was oxidized", "setting": "[8]", "result": "not affected"}, {"measurement": "atherosclerosis", "setting": "[8]; aortic denudation at week 3", "result": "significantly decreased atherosclerosis"}, {"measurement": "content of plasma and aortic lipids, and absolute amounts of oxidized lipids", "setting": "[8]; vs controls", "result": "significantly decreased"}, {"measurement": "reduction of angiographic lumen loss", "setting": "[9]", "result": 68, "unit": "%"}, {"measurement": "reduction of need for repeat angioplasty at 6 months", "setting": "[9]", "result": 58, "unit": "%"}, {"measurement": "reduction of restenosis rate per segment", "setting": "[9]", "result": 47, "unit": "%"}, {"measurement": "Treatment effect, Abdominal Aorta", "setting": "[10]", "result": 10, "unit": "%"}, {"measurement": "Treatment effect, Arch", "setting": "[10]", "result": 44, "unit": "%"}, {"measurement": "Treatment effect, Descending Thoracic Aorta", "setting": "[10]", "result": 15, "unit": "%"}]}]}
